Laboratory results as given in patent publication US5747503A, “Selective inhibitors of biogenic amine transporters” (priority 1996, dated 1998).
Entries after “also recorded” stand apart in the source; their conditions may differ. Where two headings read alike, the source gives them in different places.

Assays:
[^3 H]DA uptake = Synaptosomal [^3 H]DA uptake inhibition; assay type: biochemical, rat; details: for IC50: Table 2, nM ± SD, rat striatum synaptosomes
Description: Synaptosomal uptake assays were carried out as described (Rothman et al. (1993), supra). Briefly, synaptosomes were prepared by homogenization of rat striatum (for [^3 H]DA reuptake) or whole rat brain minus cerebellum (for [^3 H]5-HT reuptake) in ice-cold 10% sucrose, using a Potter-Elvehjem homogenizer. After a 1000×g centrifugation for 10 min at 4° C., the supernatants were retained on ice. The uptake assays were initiated by the addition of 100 μl of synaptosomes to 12×75 mm polystyrene test tubes, which were prefilled with 750 μl of [^3 H]ligand (2 nM [^3 H]5-HT or 5 nM [^3 H]DA) in a Krebs-phosphate buffer (pH 7.4), which contained ascorbic acid (1 mg/ml) and pargyline (50 μM) (buffer), 100 μl of test drugs made up in buffer containing 1 mg/ml bovine serum albumin, and 50 μl of buffer. The [^3 H]5-HT reuptake experiments were conducted in the presence of 100 nM nomifensine and […] GBR12935 in order to block any possible reuptake into NE and DA nerve terminals. […] The nonspecific uptake of each [^3 H]ligand was measured by incubations in the presence of 1 μM GBR12909 ([^3 H]DA) and 10 μM fluoxetine ([^3 H]5-HT). The incubations were terminated after a 15 min ([^3 H]DA) or 30 min ([^3 H]5-HT) incubation at 25° C. by adding 4 ml of wash buffer (10 mM TRIS-HCl, pH 7.4 containing 0.9% NaCl at 25° C.), followed by rapid filtration over Whatman GF/B filters and one additional wash cycle. […] The Krebs-phosphate buffer contained 154.5 mM NaCl, 2.9 mM KCl, 1.1 mM CaCl2, 0.83 mM MgCl2 and 5 mM glucose. The tritium retained on the filters was counted, in a Taurus beta counter, after an overnight extraction into ICN Cytoscint cocktail.
(§1) Inhibition curves were fit to the two parameter logistic equation for the best-fit estimates of the IC50 using nonlinear least squares curve fitting methods as previously described (Rothman et al. (1993), supra); Jones, S. M. and Rogawski, M. A. Mol. Neuropharmacol. 2: 303-310 (1992)).
(§2) Synaptosomal uptake and ligand binding assays were conducted as described
above. Preliminary experiments were conducted to determine the doserange
Each [^3 H] ligand was displaced
by 10 concentrations of test drug. The data of two experiments were
(§3) pooled, and fit to the two parameter logistic equation for the bestfit
estimates of the IC50 reported above.

DA transporter = target: T1, DA transporter (Rattus norvegicus, UniProt P23977); assay: [^3 H]CFT binding to DA transporter
T1 construct: Striata were dissected using glass manipulators; from tissue; host or cells: striatum of male Sprague-Dawley rats, membranes
Description: For [^3 H]J2B-carbomethoxy-3B-(4-fluorophenyl)-tropane (CFT, WIN35,428) binding assays, male Sprague-Dawley rats (200 to 300 gm) were anesthetized with C02 gas, and decapitated. Striata were dissected using glass manipulators, placed in small plastic containers, and then allowed to freeze by placing the container in dry ice.
Striata collected in this way were stored at […]. On the day of the assay, each striatum was placed in ice-cold binding buffer (BB: 55.2 mM sodium phosphate buffer, pH 7.4, 5 ml per caudate), and homogenized while still frozen with a Polytron. The homogenate was centrifuged for 10 min at 30,000×g, and the pellet was resuspended in an equal volume of BB. The homogenate was recentrifuged, and the pellet was resuspended in an equal volume of BB. An aliquot was saved for determination of protein (0.5 ml), and the remaining homogenate was brought up to a final volume of 22 ml/striatum using ice-cold BB. […] Aliquots of membranes were then used in the radioligand binding assays.
(§4) The [^3 H]nisoxetine assay for the norepinephrine transporter (NE) was carried out as described (Rothman, et al. (1993), supra; Tejani-Butt, S. M., et al. Eur. J. Pharmacol. 191:239-243 (1990)). DA transporters were labeled with [^3 H)CFT with minor modifications of published protocols (Madras, B. K., et al. Mol. Pharmacol. 36: 518-524 (1989)). Briefly, 12×75 mm polystyrene test tubes were prefilled with 100 μl of drug, 100 μl of radiolabeled (1 nM final concentration), 50 μl of buffer. Drugs were dissolved in BB containing 1 mg/ml bovine serum albumin (BB/BSA). Radioligands were made to a final concentration in a protease inhibitor cocktail containing 1 mg/ml BSA {BB containing chymostatin (25 μg/ml), leupeptin (25 μg/ml), EDTA (100 μM), and EGTA (100 μM)}. The assay was initiated by the addition of 750 μl of membranes, prepared as described above. Brandel cell harvesters were used to filter the samples over Whatman GF/B filters, which were presoaked in wash buffer (ice-cold 10 mM TRIS-HCL, pH 7.4 containing 150 mM NaCl) containing 2% polyethylenimine. In this procedure, samples were filtered and then washed with two 4 ml aliquots of ice-cold wash buffer. Nonspecific binding was defined using 10 μM (final concentration) GBR12909. All subsequent steps were identical to those described above.
as §1, §2
(§5) Preliminary experiments were conducted to determine the doserange
(§6) The data of two experiments were
as §3

NE transporter = target: T2, NE transporter (Rattus norvegicus, UniProt Q63380); assay: [^3 H]Nisoxetine binding to NE transporter
T2 construct: from tissue; host or cells: brain membranes prepared by a cited method
Description: Membranes for the [^3 H]nisoxetine assay were prepared as described (Rothman, R. B., et al. Synapse 14: 34-39 (1993)).
as §4, §1, §2, §5, §6, §3

[1] = Table 2, nM ± SD, rat striatum, read-out: [^3 H]CFT Binding IC50
[2] = Table 2, nM ±, read-out: [^3 H]Nisoxetine Binding IC50

T2 sequence (Q63380 1-617): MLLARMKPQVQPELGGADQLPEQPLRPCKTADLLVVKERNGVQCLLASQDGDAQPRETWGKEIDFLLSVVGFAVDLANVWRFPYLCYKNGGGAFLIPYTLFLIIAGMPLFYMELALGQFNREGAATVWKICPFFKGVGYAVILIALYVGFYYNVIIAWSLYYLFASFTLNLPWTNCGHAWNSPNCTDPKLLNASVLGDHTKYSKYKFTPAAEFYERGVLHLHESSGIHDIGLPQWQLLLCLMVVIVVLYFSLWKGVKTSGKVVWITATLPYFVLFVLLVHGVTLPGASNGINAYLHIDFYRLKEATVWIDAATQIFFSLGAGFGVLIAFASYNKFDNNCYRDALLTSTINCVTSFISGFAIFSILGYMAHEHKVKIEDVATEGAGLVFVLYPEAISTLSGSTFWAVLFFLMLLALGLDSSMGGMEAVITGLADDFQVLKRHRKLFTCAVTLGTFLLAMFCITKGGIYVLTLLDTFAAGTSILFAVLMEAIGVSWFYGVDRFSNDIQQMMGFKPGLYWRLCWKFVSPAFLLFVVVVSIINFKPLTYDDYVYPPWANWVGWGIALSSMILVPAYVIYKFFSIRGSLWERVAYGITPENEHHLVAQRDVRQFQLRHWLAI
T1 sequence (P23977 whole entry): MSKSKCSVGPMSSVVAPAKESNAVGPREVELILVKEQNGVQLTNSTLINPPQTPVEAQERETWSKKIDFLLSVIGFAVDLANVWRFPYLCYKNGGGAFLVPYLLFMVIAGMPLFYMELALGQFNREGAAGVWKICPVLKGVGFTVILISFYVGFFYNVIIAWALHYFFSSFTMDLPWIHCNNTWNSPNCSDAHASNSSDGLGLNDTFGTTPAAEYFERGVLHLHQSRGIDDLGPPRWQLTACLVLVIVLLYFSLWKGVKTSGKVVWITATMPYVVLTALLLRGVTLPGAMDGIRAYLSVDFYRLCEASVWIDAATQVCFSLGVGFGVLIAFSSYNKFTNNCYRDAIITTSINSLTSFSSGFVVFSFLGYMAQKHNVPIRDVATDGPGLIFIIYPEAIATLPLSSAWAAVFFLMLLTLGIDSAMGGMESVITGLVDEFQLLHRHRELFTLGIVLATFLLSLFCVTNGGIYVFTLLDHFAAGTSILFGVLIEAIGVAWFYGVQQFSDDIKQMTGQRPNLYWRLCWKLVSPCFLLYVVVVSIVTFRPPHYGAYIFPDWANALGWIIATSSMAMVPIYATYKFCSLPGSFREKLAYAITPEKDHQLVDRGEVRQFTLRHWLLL

SMILES	[^3 H]DA uptake inhibition in words ([^3 H]DA uptake)	IC50 ([^3 H]DA uptake) [nM]	[^3 H]CFT binding inhibition in words (DA transporter)	IC50 (DA transporter; [1]) [nM]	[^3 H]nisoxetine binding / NE transporter affinity in words (NE transporter)	IC50 (NE transporter; [2]) [nM]	IC50 (DA transporter) [nM]	IC50 (NE transporter) [nM]
CN1[C@H](Cc2ccccc2)C[C@H]2Cc3ccccc3[C@H]21 (relative stereo) [RTI-4793-14, (2RS, 3aSR, 8aRS)-1,2,3a,8,8a-Hexahydro-2-benzyl-1-methyl-indeno[1,2-b]pyrrole]	moderate potency	547 ± 20	moderate potency	850 ± 101	moderate potency	609 ± 48		
C[C@]12N[C@H](Cc3ccccc31)c1ccccc12 [(+)-MK801]	negligible affinity	> 10000	negligible affinity	> 15000	negligible affinity	6580 ± 860		
CNC1CC(c2ccc(Cl)c(Cl)c2)c2ccccc21 (centres unmarked) [Indatraline]	potently inhibited; also recorded: potent inhibitor	3.23 ± 0.45	potently inhibited; also recorded: potent inhibitor					
c1ccc(C2(N3CCCCC3)CCCCC2)cc1 [PCP, phencyclidine]		347	lower affinity		very low affinity		> 1500	16630 ± 98
